Reference: the NIST ThermoML archive (doi:10.1016/j.jct.2005.12.007)
± gives the expanded uncertainty stated by the source.

Conditions: 298.15 K, 101.33 kPa, Liquid; for viscosity: Capillary tube (Ostwald / Ubbelohde) method; for mass density: Pycnometric method; for speed of sound: Sing-around technique in a fixed-path interferometer

| viscosity | mass density | speed of sound | Structure (SMILES) |
| --- | --- | --- | --- |
| 0.486 ± 0.007 mPa·s | 733.3 ± 1 kg/m3 | 1249.7 ± 2.2 m/s | CCCCN [1-butanamine] |
| 0.821 ± 0.008 mPa·s | 757.53 ± 0.74 kg/m3 | 1243.4 ± 1.4 m/s | CCCCNCCCC [dibutylamine] |
| 1.258 ± 0.012 mPa·s | 773.56 ± 0.76 kg/m3 | 1245.3 ± 1.4 m/s | CCCCN(CCCC)CCCC [tributylamine] |
